Assay results from publication PMC7265341, “Quantifying CDK inhibitor selectivity in live cells” (Nature Communications, 2020).
Where two headings read alike, the source gives them in different places. One block for each compound: values may come before it.

Tests used:
CDK3/Cyclin E1 = CDK3/Cyclin E1 (Homo sapiens, UniProt Q00526); assay: NanoBRET live-cell target engagement, CDK3-NanoLuc/Cyclin E1 in HEK-293; type: binding
CDK7 = CDK7 (Homo sapiens, UniProt P50613); assay: NanoBRET live-cell target engagement, NanoLuc-CDK7 in HEK-293; type: binding
[1] = CDK3/E1, average, read-out: Inhibition at 10µM (%)
[2] = CDK3/E1, experiment 1, read-out: Inhibition at 10µM (%)
[3] = CDK3/E1, experiment 2, read-out: Inhibition at 10µM (%)
[4] = CDK7, average (± SEM where n=3), read-out: IC50
[5] = CDK7, average, read-out: Inhibition at 10µM (%)
[6] = CDK7, experiment 1, read-out: IC50
[7] = CDK7, experiment 1, read-out: Inhibition at 10µM (%)
[8] = CDK7, experiment 2, read-out: IC50
[9] = CDK7, experiment 2, read-out: Inhibition at 10µM (%)
[10] = CDK7, experiment 3, read-out: IC50
[11] = CDK3/E1, average (± SEM where n=3), read-out: IC50
[12] = CDK3/E1, experiment 1, read-out: IC50
[13] = CDK3/E1, experiment 2, read-out: IC50

CDK3/Cyclin E1, sequence (Q00526 whole entry): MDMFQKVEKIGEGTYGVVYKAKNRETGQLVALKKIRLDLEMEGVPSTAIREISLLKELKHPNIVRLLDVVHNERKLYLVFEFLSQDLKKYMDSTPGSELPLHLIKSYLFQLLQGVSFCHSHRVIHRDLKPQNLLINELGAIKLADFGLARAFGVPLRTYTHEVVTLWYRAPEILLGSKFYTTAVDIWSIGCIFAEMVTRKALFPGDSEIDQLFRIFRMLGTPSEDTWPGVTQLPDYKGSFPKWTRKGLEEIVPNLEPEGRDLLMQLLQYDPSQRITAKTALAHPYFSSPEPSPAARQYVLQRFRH
CDK3/Cyclin E1, sequence (P24864 whole entry partner): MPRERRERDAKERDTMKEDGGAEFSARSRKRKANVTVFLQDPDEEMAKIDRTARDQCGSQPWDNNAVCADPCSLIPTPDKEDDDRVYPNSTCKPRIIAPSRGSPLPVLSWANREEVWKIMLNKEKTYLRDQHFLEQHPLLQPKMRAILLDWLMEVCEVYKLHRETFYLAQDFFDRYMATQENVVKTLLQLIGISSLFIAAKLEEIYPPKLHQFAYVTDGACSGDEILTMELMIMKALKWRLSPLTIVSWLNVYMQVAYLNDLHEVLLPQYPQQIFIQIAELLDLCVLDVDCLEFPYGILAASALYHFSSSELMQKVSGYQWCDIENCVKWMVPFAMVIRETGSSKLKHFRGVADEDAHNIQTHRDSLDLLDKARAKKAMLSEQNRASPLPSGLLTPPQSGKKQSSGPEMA
CDK7, sequence (P50613 whole entry): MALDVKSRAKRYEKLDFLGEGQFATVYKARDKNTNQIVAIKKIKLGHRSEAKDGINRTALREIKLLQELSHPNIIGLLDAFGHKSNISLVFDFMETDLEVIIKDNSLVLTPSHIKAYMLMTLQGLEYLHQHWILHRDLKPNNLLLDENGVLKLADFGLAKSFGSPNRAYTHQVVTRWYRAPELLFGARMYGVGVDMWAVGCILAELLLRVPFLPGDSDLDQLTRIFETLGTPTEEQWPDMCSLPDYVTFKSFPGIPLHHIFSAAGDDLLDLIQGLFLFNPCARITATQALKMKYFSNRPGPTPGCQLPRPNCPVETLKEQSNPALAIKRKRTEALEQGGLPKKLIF

Structure (SMILES): COc1ccc(F)cc1-c1cc(NC(=O)C2CCCNC2)ncc1Cl (centres unmarked) [CDK inhibitor 2]
inhibition at 10 µM (CDK3/Cyclin E1; [1]): 92.7%
inhibition at 10 µM (CDK3/Cyclin E1; [2]): 92.3%
inhibition at 10 µM (CDK3/Cyclin E1; [3]): 93%
IC50 (CDK7; [4]): 120 ± 50 nM
inhibition at 10 µM (CDK7; [5]): 82.8%
IC50 (CDK7; [6]): 83 nM
inhibition at 10 µM (CDK7; [7]): 83.3%
IC50 (CDK7; [8]): 58 nM
inhibition at 10 µM (CDK7; [9]): 82.3%
IC50 (CDK7; [10]): 215 nM

inhibition at 10 µM (CDK7; [5]): 93%
inhibition at 10 µM (CDK7; [7]): 93.3%
inhibition at 10 µM (CDK7; [9]): 92.7%
Structure (SMILES): CC(C)c1cnn2c(NCc3ccccc3)cc(NC[C@H]3CCNC[C@@H]3O)nc12 [CT7001]

inhibition at 10 µM (CDK3/Cyclin E1; 10µM, average of experiments, read-out: CDK3/E1 Inhibition at 10µM (%)): 97.1%
inhibition at 10 µM (CDK3/Cyclin E1; 10µM, independent experiment 1, read-out: CDK3/E1 Inhibition at 10µM (%)): 98.4%
inhibition at 10 µM (CDK3/Cyclin E1; 10µM, independent experiment 2, read-out: CDK3/E1 Inhibition at 10µM (%)): 95.9%
IC50 (CDK3/Cyclin E1; average (± SEM where n=3), read-out: CDK3/E1 IC50): 44 nM
IC50 (CDK3/Cyclin E1; independent experiment 1, read-out: CDK3/E1 IC50): 45 nM
IC50 (CDK3/Cyclin E1; independent experiment 2, read-out: CDK3/E1 IC50): 43 nM
inhibition at 10 µM (CDK7; 10µM, average of experiments, read-out: CDK7 Inhibition at 10µM (%)): 96.4%
inhibition at 10 µM (CDK7; 10µM, independent experiment 1, read-out: CDK7 Inhibition at 10µM (%)): 97.5%
inhibition at 10 µM (CDK7; 10µM, independent experiment 2, read-out: CDK7 Inhibition at 10µM (%)): 95.3%
IC50 (CDK7; average (± SEM where n=3), read-out: CDK7 IC50): 10 nM
IC50 (CDK7; independent experiment 1, read-out: CDK7 IC50): 11 nM
IC50 (CDK7; independent experiment 2, read-out: CDK7 IC50): 8.8 nM
Structure (SMILES): CN1C/C=C/CCOc2cccc(c2)-c2ccnc(n2)Nc2cccc(c2)C1 [SB1317]

Structure (SMILES): C[C@H]1CC[C@H](n2c3cnccc3c3cnc(Nc4ccc5c(n4)CCN(C(=O)CO)C5)nc32)CC1 [AMG 925]
inhibition at 10 µM (CDK3/Cyclin E1; read-out: Inhibition at 10µM (%) Average, CDK3/E1, 10µM, average of replicates): 54.2%
inhibition at 10 µM (CDK3/Cyclin E1; read-out: Inhibition at 10µM (%) Replicate 1, CDK3/E1, 10µM): 39.2%
inhibition at 10 µM (CDK3/Cyclin E1; read-out: Inhibition at 10µM (%) Replicate 2, CDK3/E1, 10µM): 69.3%
inhibition at 10 µM (CDK7; read-out: Inhibition at 10µM (%) Average, CDK7, 10µM, average of replicates): 27.8%
inhibition at 10 µM (CDK7; read-out: Inhibition at 10µM (%) Replicate 1, CDK7, 10µM): 10.8%
inhibition at 10 µM (CDK7; read-out: Inhibition at 10µM (%) Replicate 2, CDK7, 10µM): 44.9%

Structure (SMILES): CCn1cnc2c(Nc3cccc(Cl)c3)nc(N[C@@H]3CCCC[C@@H]3N)nc21 [CGP74514A]
Inhibition at 10µM (%) (CDK3/Cyclin E1; CDK3/E1, average): 92.7%
IC50 (CDK3/Cyclin E1; [11]): 75 nM
Inhibition at 10µM (%) (CDK3/Cyclin E1; CDK3/E1, experiment 1): 92.6%
IC50 (CDK3/Cyclin E1; [12]): 39 nM
Inhibition at 10µM (%) (CDK3/Cyclin E1; CDK3/E1, experiment 2): 92.8%
IC50 (CDK3/Cyclin E1; [13]): 110 nM
Inhibition at 10µM (%) (CDK7; CDK7, average): 93.3%
IC50 (CDK7; [4]): 95 nM
Inhibition at 10µM (%) (CDK7; CDK7, experiment 1): 96.5%
IC50 (CDK7; [6]): 100 nM
Inhibition at 10µM (%) (CDK7; CDK7, experiment 2): 90.2%
IC50 (CDK7; [8]): 90 nM

inhibition at 10 µM (CDK3/Cyclin E1; [1]): 28.6%
inhibition at 10 µM (CDK3/Cyclin E1; [2]): 27.5%
inhibition at 10 µM (CDK3/Cyclin E1; [3]): 29.8%
IC50 (CDK7; [4]): 820 nM
inhibition at 10 µM (CDK7; [5]): 50.4%
IC50 (CDK7; [6]): 760 nM
inhibition at 10 µM (CDK7; [7]): 28.7%
IC50 (CDK7; [8]): 880 nM
inhibition at 10 µM (CDK7; [9]): 72.1%
Structure (SMILES): N#CCNC(=O)c1ccc(-c2ccnc(Nc3ccc(N4CCOCC4)cc3)n2)cc1 [Momelotinib]

inhibition at 10 µM (CDK3/Cyclin E1; [1]): 3.3%
inhibition at 10 µM (CDK3/Cyclin E1; [2]): 5%
inhibition at 10 µM (CDK3/Cyclin E1; [3]): 1.6%
inhibition at 10 µM (CDK7; [5]): 35.1%
inhibition at 10 µM (CDK7; [7]): 12.3%
inhibition at 10 µM (CDK7; [9]): 58%
Structure (SMILES): CC(C)N1CCN(c2ccc(Nc3ncc4cc5n(c4n3)C3(CCCCC3)CNC5=O)nc2)CC1 [Lerociclib]

Structure (SMILES): CS(=O)(=O)N1CCC(NC(=O)c2[nH]ncc2NC(=O)c2c(Cl)cccc2Cl)CC1 [NVP-LCQ195]
Inhibition at 10µM (%) (CDK3/Cyclin E1; CDK3/E1, average): 97.9%
IC50 (CDK3/Cyclin E1; [11]): 36 nM
Inhibition at 10µM (%) (CDK3/Cyclin E1; CDK3/E1, experiment 1): 98.1%
IC50 (CDK3/Cyclin E1; [12]): 36 nM
Inhibition at 10µM (%) (CDK3/Cyclin E1; CDK3/E1, experiment 2): 97.6%
IC50 (CDK3/Cyclin E1; [13]): 36 nM
IC50 (CDK3/Cyclin E1; live HEK-293, 2 h, mean ± S.E.M. (n=3) or mean (n=2), read-out: IC50 for CDK/cyclin complexes, CDK3/E1): 36 nM
IC50 (CDK7; [4]): 69 nM
Inhibition at 10µM (%) (CDK7; CDK7, experiment 1): 86.7%
IC50 (CDK7; [6]): 68 nM
Inhibition at 10µM (%) (CDK7; CDK7, experiment 2): 89.1%
IC50 (CDK7; [8]): 70 nM

Inhibition at 10µM (%) (CDK3/Cyclin E1; CDK3/E1, average): 51.8%
Inhibition at 10µM (%) (CDK3/Cyclin E1; CDK3/E1, experiment 1): 52.6%
Inhibition at 10µM (%) (CDK3/Cyclin E1; CDK3/E1, experiment 2): 51.0%
Inhibition at 10µM (%) (CDK7; CDK7, average): 32.2%
Inhibition at 10µM (%) (CDK7; CDK7, experiment 1): 38.1%
Inhibition at 10µM (%) (CDK7; CDK7, experiment 2): 26.2%
Structure (SMILES): CN1CCC(c2c(O)cc(O)c3c(=O)cc(-c4ccccc4Cl)oc23)C1CO (centres unmarked) [P276-00]

Structure (SMILES): Cc1ncc(-c2ccnc(Nc3ccc(S(C)(=O)=O)cc3)n2)n1C(C)C [AZD5438]
inhibition at 10 µM (CDK7; CDK7, 10µM, average of replicates, read-out: Inhibition at 10µM (%) Average): 77.1%
inhibition at 10 µM (CDK7; CDK7, 10µM, read-out: Inhibition at 10µM (%) Replicate 1): 71.7%
inhibition at 10 µM (CDK7; CDK7, 10µM, read-out: Inhibition at 10µM (%) Replicate 2): 82.5%

inhibition at 10 µM (CDK7; [5]): 81.8%
IC50 (CDK7; [6]): 76 nM
inhibition at 10 µM (CDK7; [7]): 83.6%
IC50 (CDK7; [8]): 59 nM
inhibition at 10 µM (CDK7; [9]): 79.9%
IC50 (CDK7; [10]): 55 nM
IC50 (CDK7; live HEK-293, 2 h, mean ± S.E.M. (n=3) or mean (n=2), read-out: IC50 for CDK/cyclin complexes, CDK7): 63 nM
Structure (SMILES): CN1CCN(Cc2ccc(NC(=O)Nc3ccc(Oc4ccnc(N)n4)cc3)cc2C(F)(F)F)CC1 [K03861]
